Experimental data taken from ChEMBL document CHEMBL1140015, “Pyrazolone methylamino piperidine derivatives as novel CCR3 antagonists” (Bioorg Med Chem Lett, 2007).
pIC50: −log10 of the molar value. Values after ≈ are worked out from the molar mass of the structure shown.

What was measured:
[1] = target: T1, C-C chemokine receptor type 3 (Homo sapiens, UniProt P51677); test: Displacement of [125I]eotaxin from CCR3 receptor in human eosinophils
T1 sequence (P51677 whole entry): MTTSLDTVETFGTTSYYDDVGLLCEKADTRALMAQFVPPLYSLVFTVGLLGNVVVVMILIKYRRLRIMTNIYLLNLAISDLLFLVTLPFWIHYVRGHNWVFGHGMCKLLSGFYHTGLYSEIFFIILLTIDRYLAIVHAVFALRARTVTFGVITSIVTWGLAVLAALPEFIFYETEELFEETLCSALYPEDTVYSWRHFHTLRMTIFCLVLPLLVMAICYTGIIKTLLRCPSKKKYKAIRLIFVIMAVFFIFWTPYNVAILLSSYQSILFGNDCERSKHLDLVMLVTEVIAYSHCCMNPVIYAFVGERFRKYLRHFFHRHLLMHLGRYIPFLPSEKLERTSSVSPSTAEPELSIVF

[2] = Metabolic stability in rat liver microsomes assessed as intrinsic clearance; format: ADME, Microsome
Hepatocyte [3] = test: Metabolic stability in rat hepatocytes after 2 hrs; format: ADME, cell-based
Hepatocyte [4] = test: Metabolic stability in rat hepatocytes after 19 hrs; format: ADME, cell-based
[5] = Solubility in water at pH 7.4
[6] = Permeability from apical to basolateral side of Caco-2 cell membrane; conditions: human
[7] = target: T1, C-C chemokine receptor type 3; test: Antagonist activity at human CCR3 receptor assessed as inhibition of calcium flux; format: functional

| pIC50 [1] | microsomal CLint [2] | Stability (Hepatocyte [3]) | Stability (Hepatocyte [4]) | solubility [5] | Papp A→B [6] | pIC50 [7] | Structure (SMILES) |
| --- | --- | --- | --- | --- | --- | --- | --- |
| 7.00 |  |  |  |  |  |  | Cc1c(CN(CCc2ccc(Cl)cc2)C2CCN(C(=O)c3c(F)cccc3F)CC2)c(=O)n(C2CCCCC2)n1C |
| 6.00 | 82 µL/min/mg | 35% | 78% |  |  |  | Cc1c(CN(CCc2ccccn2)C2CCN(C(=O)c3c(F)cccc3F)CC2)c(=O)n(-c2ccc(F)cc2)n1C |
| 7.10 |  |  |  |  |  |  | Cc1c(CN(CCc2ccc(Cl)cc2)C2CCN(C(=O)c3c(F)cccc3F)CC2)c(=O)n(-c2ccc(N)cc2)n1C |
| 6.80 |  |  |  |  |  |  | Cc1c(CN(CCc2ccc(Cl)cc2)C2CCN(C(=O)c3c(F)cccc3F)CC2)c(=O)n(-c2ccc(C#N)cc2)n1C |
| 7.00 |  |  |  |  |  |  | COc1ccc(-n2c(=O)c(CN(CCc3ccc(Cl)cc3)C3CCN(C(=O)c4c(F)cccc4F)CC3)c(C)n2C)cc1 |
| 5.60 |  |  |  |  |  |  | Cc1c(CN(CCc2ccc(Cl)cc2)C2CCN(C(=O)c3c(F)cccc3F)CC2)c(=O)n(-c2ccc(C(=O)O)cc2)n1C |
| 7.20 |  |  |  |  |  |  | Cc1c(CN(CCc2ccc(Cl)cc2)C2CCN(C(=O)c3c(F)cccc3F)CC2)c(=O)n(-c2ccc(Cl)cc2)n1C |
| 6.60 |  |  |  |  |  |  | COc1ccncc1-n1c(=O)c(CN(CCc2ccc(Cl)cc2)C2CCN(C(=O)c3c(F)cccc3F)CC2)c(C)n1C |
| 6.70 | 303 µL/min/mg |  |  | 100 µg/mL (≈ 172 µM) |  |  | Cc1c(CN(CCc2ccc(F)cc2)C2CCN(C(=O)c3c(F)cccc3F)CC2)c(=O)n(-c2ccc(F)cc2)n1C |
| 5.60 | < 50 µL/min/mg | 23% | 71% | 900 µg/mL (≈ 1560 µM) | < 1 ×10⁻⁶ cm/s |  | Cc1c(CN(CCc2ccc(N)cc2)C2CCN(C(=O)c3c(F)cccc3F)CC2)c(=O)n(-c2ccc(F)cc2)n1C |
| 7.49 |  |  |  |  |  |  | Cc1c(CN(CCc2ccc(Cl)cc2)C2CCN(C(=O)c3c(F)cccc3F)CC2)c(=O)n(-c2ccccc2)n1C |
| 6.80 |  |  |  |  |  |  | Cc1c(CN(CCCCc2ccccc2)C2CCN(C(=O)c3cccc4ccccc34)CC2)c(=O)n(-c2ccccc2)n1C |
| 7.70 | 472 µL/min/mg | 52% | 95% | 1 µg/mL (≈ 1.67 µM) | 8.1 ×10⁻⁶ cm/s | 7.80 | Cc1c(CN(CCc2ccc(Cl)cc2)C2CCN(C(=O)c3c(F)cccc3F)CC2)c(=O)n(-c2ccc(F)cc2)n1C |
| 8.20 | 235 µL/min/mg | 35% | 95% | 100 µg/mL (≈ 165 µM) |  |  | Cc1c(CN(CCc2ccc([N+](=O)[O-])cc2)C2CCN(C(=O)c3c(F)cccc3F)CC2)c(=O)n(-c2ccc(F)cc2)n1C |
| 7.92 | 79 µL/min/mg | 38% | 94% | 1200 µg/mL (≈ 2000 µM) |  |  | Cc1ccc(C(=O)N2CCC(N(CCc3ccc([N+](=O)[O-])cc3)Cc3c(C)n(C)n(-c4ccc(F)cc4)c3=O)CC2)c(C)n1 |
| 7.92 | 62 µL/min/mg | 29% | 82% | 1260 µg/mL (≈ 2200 µM) | 7.8 ×10⁻⁶ cm/s |  | Cc1c(CN(CCc2ccc([N+](=O)[O-])cc2)C2CCN(C(=O)c3ccccn3)CC2)c(=O)n(-c2ccc(F)cc2)n1C |
| < 5.00 | < 50 µL/min/mg | 43% | 86% | 400 µg/mL (≈ 623 µM) | < 1 ×10⁻⁶ cm/s |  | Cc1c(CN(CCc2ccc(S(N)(=O)=O)cc2)C2CCN(C(=O)c3c(F)cccc3F)CC2)c(=O)n(-c2ccc(F)cc2)n1C |
| 6.40 |  |  |  |  |  |  | CC(=O)Nc1ccc(-n2c(=O)c(CN(CCc3ccc(Cl)cc3)C3CCN(C(=O)c4c(F)cccc4F)CC3)c(C)n2C)cc1 |
| 6.70 | < 50 µL/min/mg | 15% | 55% | > 2000 µg/mL | 1.3 ×10⁻⁶ cm/s |  | Cc1c(CN(CCc2ccc(Cl)cc2)C2CCN(C(=O)c3cccc[n+]3[O-])CC2)c(=O)n(-c2ccc(F)cc2)n1C |
| 7.00 |  |  |  |  |  |  | Cc1c(CN(CCc2ccc(Cl)cc2)C2CCN(C(=O)c3c(F)cccc3F)CC2)c(=O)n(-c2ccc(N(C)C)cc2)n1C |
| 7.00 |  |  |  |  |  |  | Cc1c(CN(CCc2ccc(Cl)cc2)C2CCN(C(=O)c3c(F)cccc3F)CC2)c(=O)n(-c2cnccc2Cl)n1C |
| 7.00 |  |  |  |  |  |  | Cc1c(CN(CCc2ccc(Cl)cc2)C2CCN(C(=O)c3c(F)cccc3F)CC2)c(=O)n(-c2cccc(F)c2)n1C |
| 7.40 |  |  |  |  |  |  | Cc1c(CN(CCc2ccc(Cl)cc2)C2CCN(C(=O)c3c(F)cccc3F)CC2)c(=O)n(-c2ccccc2F)n1C |
| 7.00 |  |  |  |  |  |  | Cc1c(CN(CCc2ccc(Cl)cc2)C2CCN(C(=O)c3c(F)cccc3F)CC2)c(=O)n(-c2ccc(O)cc2)n1C |
| 7.00 |  |  |  |  |  |  | Cc1c(CN(CCc2ccc(Cl)cc2)C2CCN(C(=O)c3c(F)cccc3F)CC2)c(=O)n(-c2ccc([N+](=O)[O-])cc2)n1C |
| 7.60 |  |  |  |  |  |  | Cc1c(CN(CCc2ccc(Cl)cc2)C2CCN(C(=O)c3c(F)cccc3F)CC2)c(=O)n(-c2ccccn2)n1C |
| 5.60 | 113 µL/min/mg |  |  | > 2000 µg/mL |  |  | Cc1c(CN(CCc2cccnc2)C2CCN(C(=O)c3c(F)cccc3F)CC2)c(=O)n(-c2ccc(F)cc2)n1C |
